Assay results taken from PubChem BioAssay AID248 (DTP/NCI, 2004).
Toxic doses and inconclusive results are not listed. Cut-off read from the data, not from the text of the source: active = T/C of 150% or more; inactive = T/C below 125%.

System: L1210 leukemia ip in BDF1 mice, survival T/C
Experiment: NCI In Vivo Anticancer Drug Screen. Data for tumor model L1210 Leukemia (intraperitoneal) in B6D2F1 (BDF1) mice
Details: endpoint: mean survival time, higher = longer survival
Summary of the method: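 Read-out is survival time, reported as the treated-group measurement over the vehicle-control measurement.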

[1] = dose: 100.0 mg/kg/injection, schedule: Q01DX009 (ip), vehicle: saline with Tween-80
[2] = dose: 100.0 mg/kg/injection, schedule: Q04DX003 (ip), vehicle: saline with Tween-80
[3] = dose: 200.0 mg/kg/injection, schedule: Q01DX009 (ip), vehicle: saline with Tween-80
[4] = dose: 200.0 mg/kg/injection, schedule: Q04DX003 (ip), vehicle: saline with Tween-80
[5] = dose: 400.0 mg/kg/injection, schedule: Q01DX009 (ip), vehicle: saline with Tween-80
[6] = dose: 400.0 mg/kg/injection, schedule: Q04DX003 (ip), vehicle: saline with Tween-80
[7] = dose: 100.0 mg/kg/injection, schedule: Q01DX001 (ip), vehicle: carboxymethylcellulose (CMC)
[8] = dose: 200.0 mg/kg/injection, schedule: Q01DX001 (ip), vehicle: carboxymethylcellulose (CMC)
[9] = dose: 400.0 mg/kg/injection, schedule: Q01DX001 (ip), vehicle: carboxymethylcellulose (CMC)
[10] = dose: 100.0 mg/kg/injection, schedule: Q01DX009 (ip), vehicle: Klucel (hydroxypropylcellulose) (HPC)
[11] = dose: 200.0 mg/kg/injection, schedule: Q01DX009 (ip), vehicle: Klucel (hydroxypropylcellulose) (HPC)
[12] = dose: 100.0 mg/kg/injection, schedule: Q04DX002 (ip), vehicle: saline with Tween-80
[13] = dose: 200.0 mg/kg/injection, schedule: Q04DX002 (ip), vehicle: saline with Tween-80
[14] = dose: 400.0 mg/kg/injection, schedule: Q04DX002 (ip), vehicle: saline with Tween-80
[15] = dose: 100.0 mg/kg/injection, schedule: Q04DX003 (ip), vehicle: saline
[16] = dose: 200.0 mg/kg/injection, schedule: Q04DX003 (ip), vehicle: saline
[17] = dose: 400.0 mg/kg/injection, schedule: Q04DX003 (ip), vehicle: saline
[18] = dose: 100.0 mg/kg/injection, schedule: Q04DX003 (ip), vehicle: Klucel (hydroxypropylcellulose) (HPC)
[19] = dose: 200.0 mg/kg/injection, schedule: Q04DX003 (ip), vehicle: Klucel (hydroxypropylcellulose) (HPC)
[20] = dose: 50.0 mg/kg/injection, schedule: Q01DX009 (ip), vehicle: saline with Tween-80
[21] = dose: 25.0 mg/kg/injection, schedule: Q01DX009 (ip), vehicle: Klucel (hydroxypropylcellulose) (HPC)
[22] = dose: 100.0 mg/kg/injection, schedule: Q01DX001 (ip), vehicle: saline
[23] = dose: 200.0 mg/kg/injection, schedule: Q01DX001 (ip), vehicle: saline
[24] = dose: 400.0 mg/kg/injection, schedule: Q01DX001 (ip), vehicle: saline

Measured: T/C

O=S(=O)(O)C(Nc1ccccc1)c1ccccc1 (centres undefined)
inactive: [1] 100 % of control | [2] 97 % of control | dose: 150.0 mg/kg/injection, schedule: Q01DX001 (ip), vehicle: water 96 % of control | dose: 162.0 mg/kg/injection, schedule: Q01DX Z (ip), vehicle: carboxymethylcellulose (CMC) 95 % of control | [3] 96 % of control | [4] 101 % of control | dose: 300.0 mg/kg/injection, schedule: Q01DX001 (ip), vehicle: water 100 % of control | dose: 324.0 mg/kg/injection, schedule: Q01DX Z (ip), vehicle: carboxymethylcellulose (CMC) 94 % of control | [5] 101 % of control | dose: 400.0 mg/kg/injection, schedule: Q01DX015 (ip), vehicle: water 119 % of control | [6] 93 % of control | dose: 600.0 mg/kg/injection, schedule: Q01DX001 (ip), vehicle: water 96 % of control | dose: 600.0 mg/kg/injection, schedule: Q01DX015 (ip), vehicle: water 104 % of control | dose: 1200.0 mg/kg/injection, schedule: Q01DX001 (ip), vehicle: water 116 % of control

CC(=O)NC12CC3CC(CC(C)(C3)C1)C2
inactive: dose: 100.0 mg/kg/injection, schedule: Q01DX001 (ip), vehicle: Klucel (hydroxypropylcellulose) (HPC) 103 % of control | dose: 200.0 mg/kg/injection, schedule: Q01DX001 (ip), vehicle: Klucel (hydroxypropylcellulose) (HPC) 106 % of control

Cc1ccc(S(=O)(=O)OCCCOS(=O)(=O)c2ccc(C)cc2)cc1
inactive: [2] 96 % of control | [4] 102 % of control | [6] 98 % of control

CS(=O)(=O)Oc1c(Br)cc(Br)c2cccnc12
inactive: [7] 104 % of control | [8] 98 % of control | [9] 98 % of control

CC(=O)Oc1ccc(N(CCCl)CCCl)cc1OC(C)=O
inactive: dose: 150.0 mg/kg/injection, schedule: Q01DX001 (ip), vehicle: other 98 % of control

Nc1cccc(C(=O)c2cccc(N)c2)c1
inactive: [7] 96 % of control | [8] 94 % of control | [9] 88 % of control

CC(/C=C/C=C/c1ccccc1)=N\O
inactive: [10] 98 % of control | [11] 90 % of control | dose: 400.0 mg/kg/injection, schedule: Q01DX009 (ip), vehicle: Klucel (hydroxypropylcellulose) (HPC) 96 % of control

COc1ccc(OC)c(Br)c1
inactive: [1] 102 % of control | [2] 100 % of control | [3] 107 % of control | [4] 100 % of control | [5] 110 % of control | [6] 104 % of control

Cc1ccc(S(=O)(O)=S)cc1.[Fe]
inactive: dose: 75.0 mg/kg/injection, schedule: Q01DX001 (ip), vehicle: saline 88 % of control | dose: 300.0 mg/kg/injection, schedule: Q01DX001 (ip), vehicle: saline 86 % of control

Cc1cccc(-c2nnc(-c3cccc(C)n3)o2)n1
inactive: dose: 50.0 mg/kg/injection, schedule: Q04DX002 (ip), vehicle: saline with Tween-80 92 % of control | [12] 95 % of control | [13] 92 % of control | [14] 87 % of control

C/C=C\CC(C(C)=O)C(=O)OCC (centres undefined)
inactive: dose: 75.0 mg/kg/injection, schedule: Q01DX009 (ip), vehicle: saline 92 % of control | [15] 105 % of control | dose: 150.0 mg/kg/injection, schedule: Q01DX009 (ip), vehicle: saline 92 % of control | [16] 91 % of control | dose: 300.0 mg/kg/injection, schedule: Q01DX009 (ip), vehicle: saline 97 % of control | [17] 104 % of control

O=C(Nc1coc2ccc(Cl)cc12)C1CC1
inactive: [1] 86 % of control | [3] 99 % of control

Cc1nc(N)[nH]c(=O)c1Br
inactive: [10] 97 % of control | [18] 93 % of control | [11] 100 % of control | [19] 98 % of control | dose: 400.0 mg/kg/injection, schedule: Q04DX003 (ip), vehicle: Klucel (hydroxypropylcellulose) (HPC) 98 % of control

CCOC(=O)c1csc(/C=C/c2ccc([N+](=O)[O-])o2)n1
inactive: [18] 89 % of control | [19] 92 % of control

O=S(=O)(OC1CCCCC1Br)c1ccc(Br)cc1 (centres undefined)
inactive: [20] 98 % of control | [1] 95 % of control

Cc1[nH]c(=O)[nH]c(=O)c1N(CCO)CCF
inactive: [15] 98 % of control | [16] 101 % of control | [17] 97 % of control

CCCCSN1CCCCC1
inactive: [12] 93 % of control | [13] 93 % of control

CCCC[P+](CCCC)(CCCC)Cc1ccc([N+](=O)[O-])cc1
inactive: dose: 12.5 mg/kg/injection, schedule: Q01DX001 (ip), vehicle: Klucel (hydroxypropylcellulose) (HPC) 97 % of control | dose: 12.5 mg/kg/injection, schedule: Q04DX002 (ip), vehicle: Klucel (hydroxypropylcellulose) (HPC) 106 % of control | dose: 25.0 mg/kg/injection, schedule: Q01DX001 (ip), vehicle: Klucel (hydroxypropylcellulose) (HPC) 101 % of control | [21] 99 % of control | dose: 25.0 mg/kg/injection, schedule: Q04DX002 (ip), vehicle: Klucel (hydroxypropylcellulose) (HPC) 106 % of control | dose: 50.0 mg/kg/injection, schedule: Q01DX001 (ip), vehicle: Klucel (hydroxypropylcellulose) (HPC) 101 % of control | dose: 50.0 mg/kg/injection, schedule: Q04DX002 (ip), vehicle: Klucel (hydroxypropylcellulose) (HPC) 87 % of control

CCOC(=O)NN=C1CCCC1
inactive: [20] 94 % of control | [1] 97 % of control

CC[N+]1(CC)CC[N+](CC)(CC)CC1
inactive: [22] 97 % of control | dose: 100.0 mg/kg/injection, schedule: Q04DX002 (ip), vehicle: saline 96 % of control | [23] 97 % of control | dose: 200.0 mg/kg/injection, schedule: Q04DX002 (ip), vehicle: saline 96 % of control | [24] 102 % of control | dose: 400.0 mg/kg/injection, schedule: Q04DX002 (ip), vehicle: saline 107 % of control

CN(C)P1(N)=NP(N)(N(C)C)=NP(N)(N(C)C)=N1 (centres undefined)
inactive: dose: 100.0 mg/kg/injection, schedule: Q01DX009 (ip), vehicle: saline 98 % of control | dose: 200.0 mg/kg/injection, schedule: Q01DX009 (ip), vehicle: saline 95 % of control | dose: 400.0 mg/kg/injection, schedule: Q01DX009 (ip), vehicle: saline 93 % of control

Fc1cc(F)c(F)c(Nc2ccccc2)c1F
inactive: dose: 25.6 mg/kg/injection, schedule: Q04DX002 (ip), vehicle: saline with Tween-80 113 % of control | dose: 64.0 mg/kg/injection, schedule: Q04DX002 (ip), vehicle: saline with Tween-80 89 % of control | dose: 160.0 mg/kg/injection, schedule: Q04DX002 (ip), vehicle: saline with Tween-80 95 % of control | [14] 106 % of control

N#CC(c1ccc(N)cc1)c1ccc(F)cc1 (centres undefined)
inactive: dose: 50.0 mg/kg/injection, schedule: Q01DX001 (ip), vehicle: saline 97 % of control | [22] 97 % of control | [23] 97 % of control

O=C(c1ccccc1)C(Cl)Cl
inactive: [15] 106 % of control | [16] 96 % of control | [17] 98 % of control

NNc1n[nH]c(=O)[nH]c1=O
inactive: [22] 102 % of control | [23] 96 % of control | [24] 96 % of control

O=C(COc1cc(Cl)c(Cl)cc1Cl)Nc1ccc(N=Nc2ccccc2)cc1
inactive: dose: 100.0 mg/kg/injection, schedule: Q04DX002 (ip), vehicle: Klucel (hydroxypropylcellulose) (HPC) 99 % of control | dose: 200.0 mg/kg/injection, schedule: Q04DX002 (ip), vehicle: Klucel (hydroxypropylcellulose) (HPC) 99 % of control | dose: 400.0 mg/kg/injection, schedule: Q04DX002 (ip), vehicle: Klucel (hydroxypropylcellulose) (HPC) 86 % of control

CC(C)c1ccc(N2C(=O)C=CC2=O)cc1
inactive: dose: 12.5 mg/kg/injection, schedule: Q01DX009 (ip), vehicle: Klucel (hydroxypropylcellulose) (HPC) 100 % of control | [21] 91 % of control
